Experiments:
HaCaT cells = assay: MTT cell viability assay, HaCaT cells; format: cell-based, human; details: FIG. 1B
Procedure: (§1) HaCaT cell is an immortal human keratinocyte line (CLS order no. 300493) and A375 cell is a human melanoma cell line (ATCC, CRL-1619) that isolated from malignant melanoma. Both cells were cultured in Dulbecco's Modified Eagle Medium (DMEM; Gibco, Carlsbad, Calif., USA) with 10% fetal bovine serum (FBS; Gibco), and 1% Penicillin/Streptomycin (Biowest) in culture incubator at 37° C., 5% CO2. CCD-966SK is a human skin fibroblast (ATCC, CRL-1881) cell line that taken from the breast of patient with invasive ductal carcinoma and cultured in Minimum Essential Medium (MEM; Gibco) with 10% FBS, 1% sodium pyruvate (Biowest), and 1% Penicillin/Streptomycin (Biowest) in culture incubator at 37° C., 5% CO2.
(§2) The 3-(4,5-dimethylthiazol-2-yl)-2,5-diphenyltetrazolium bromide (MTT, Invitrogen) is a colorimetric based assay that is performed to analyze the proliferation of cells. Cells (1×10^4 cells) were seeded in 96 well plates for overnight. […] The media was removed, and formazan was solubilized by adding 100 of DMSO (Sigma-Aldrich) and absorbance was measured at 570 nm using a microplate reader (Thermo Labsystems, Opsys MR, USA). […]

[1] = system: burn wound on back skin of C57BL/6 mice; assay: Animal skin injury (burn wound) model, wound healing; format: in vivo; details: for Wound Area: cream spread on burned site once/day, extract and Andrographolide 0.1 mg/ml, Silver sulfadiazine 1%, mean ± SD
Procedure: These mice were used between 8 to 10 weeks of age and age-matched for each experiment.
A cream matrix containing 1 g polyethylene glycol/poly propylene glycol/poly ethylene glycol (PEG-PPG-PEG; MW=5800; Sigma), 2 ml polyethylene glycol-400 (PEG-400; FCW®, Taiwan), and 3 ml polyethylene glycol-1500 (PEG-1500; FCW®, Taiwan) was formed. The solution of A. paniculata extract and Andrographolide was added into cream matrix and completely mixed (for both of them, the final concentration is 0.1 mg/ml).
Mice were anesthetized by pentobarbital (50 mg/kg) and removed the hair of back. A stainless steel cylinder tool (1 cm in diameter, 0.785 cm^2 cm in area) was heated for 20 sec and attached on back skin of mice for 2 sec. […] The wound area was measured on days 1, 3, 5, 7, 9, 11, 13, 15, 17, 19, and 21 after drug treatment.

melanin in A375 cells = assay: Melanin assay in A375 cells; format: cell-based, human; details: after normalization with cell number, dose-dependent manner, FIG. 5B
Procedure: Cells (1×10^5 cells) were seeded in 12 well plates and treated with drugs for 24 or 48 hr. Plates were washed with PBS and added 0.5 ml of 1N NaOH, and heating at 100° C. for 1 h. Plates were then centrifuged at 12,000 rpm for 30 min at 25° C. Supernatants (100 μl/well) were added into 96 well plates, and the secretion of melanin was determined by measuring the absorbance at 405 nm using microplate reader (Thermo Labsystems).

CCD-966SK cells = assay: MTT cell viability assay, CCD-966SK cells; format: cell-based, human; details: 50 μg/ml; 24 and 48 h; FIG. 2B
Procedure: as §1, §2

A375 cell = assay: MTT cell viability assay, A375 cells; format: cell-based, human; details: dose-dependent manner; FIG. 5A
Procedure: as §1, §2

With `C=C1CC[C@@H]2[C@](C)(CO)[C@H](O)CC[C@@]2(C)[C@@H]1C/C=C1/C(=O)OC[C@H]1O` [Andrographolide] the “cell viability of HaCaT cells” value (HaCaT cells; 50 μg/ml, 24 and 48 h) was “significantly decreased”, the “cell viability of HaCaT cells” value (HaCaT cells; low doses (1, 5, and 10 μg/ml), 24 h) was “significantly enhanced” and the “wound healing rate compared with silver sulfadiazine-treated mice” value ([1]; 0.1 mg/ml cream once/day vs Silver sulfadiazine 1%, FIG. 3) was “two days earlier”. The “Wound Area” value ([1]; DAY 1) was 133.57 ± 28.46 mm^2, the “Wound Area” value ([1]; DAY 3) was 111.94 ± 24.09 mm^2 and the “Wound Area” value ([1]; DAY 5) was 85.15 ± 13.35 mm^2. The “Wound Area” value ([1]; DAY 7) was 48.43 ± 5.91 mm^2, the “Wound Area” value ([1]; DAY 9) was 28.22 ± 9.40 mm^2 and the “Wound Area” value ([1]; DAY 11) was 16.46 ± 5.43 mm^2. The “Wound Area” value ([1]; DAY 13) was 11.62 ± 4.49 mm^2, the “Wound Area” value ([1]; DAY 15) was 6.94 ± 5.04 mm^2 and the “Wound Area” value ([1]; DAY 17) was 4.12 ± 3.96 mm^2. The “Wound Area” value ([1]; DAY 19) was 0 mm^2, the “Wound Area” value ([1]; DAY 21) was 0 mm^2 and the “expression level of melanin” value (melanin in A375 cells) was “significantly inhibited”. The “cell viability of CCD-966SK cells” value (CCD-966SK cells) was “significantly decreased” and the “cell viability of A375 cell” value (A375 cell) was “significantly inhibited”.

Source: patent US20160193139A1, “Composition having A. paniculata for wound healing and skin whitening, and method by using the same” (National Dong Hua University, priority 2013, published 2016)
